Converted amounts (≈) assume the structure as drawn. The source made the active and inactive calls. The calls are words filed in the database; no cut-off is given here.
How the values were obtained:
[1] = Toxicity in female NOD/SCID mouse xenografted with human K562-r cells assessed as body weight loss at 50 mg/kg, po administered once daily for 30 days; assay type: organism-based; details: in vivo, 720 h, time 30 day
[2] = system: K-562R; test: Antitumor activity against human K562-r cells xenografted in female NOD/SCID mouse model assessed as tumor growth inhibition at 50 mg/kg, po administered once daily for 30 days; assay type: functional, organism-based; details: time 30.0 day
[3] = Cytotoxicity against human Docetaxel-resistant DU145 cell assessed as metabolic activity at 12.5 nM measured after 72 hrs by MTT assay relative to control; assay type: functional
[4] = system: PBMC; test: Inhibition of colony formation in human PBMC derived from TKI naive CML patients assessed as reduction in number of colonies at 1 uM incubated for 14 days in presence of imatinib by inverted microscopic analysis; assay type: functional, cell-based; details: time 14.0 day
[5] = system: MCF7; test: Inhibition of side population phenotype in human MCF7 cells expressing ABCG2 at 10 uM incubated for 90 mins by DCV staining based flow cytometric analysis; assay type: functional, cell-based
[6] = system: K-562R; test: Effect on ABCB1 protein expression in human K562-r cells at 4 uM incubated for 72 hrs by Western blotting based immunoassay; assay type: functional, cell-based
[7] = system: K-562R; test: Sensitization of imatinib-induced cytotoxicity against human K562-r cells assessed as reduction in metabolic activity at 0.5 to 10 uM measured after 72 hrs by MTT assay; assay type: functional, cell-based; details: dose 0.5-10 µM
[8] = system: PBMC; test: Effect on colony formation in human PBMC derived from healthy donors at 10 uM measured after 2 weeks by inverted microscopic analysis; assay type: functional, cell-based
[9] = system: K562-r; test: Inhibition of STAT5 phosphorylation in human K562-r cells at 4 uM measured after 6 hrs in presence of imatinib by Western blotting based immunoassay; assay type: cell-based
[10] = system: K-562R; test: Sensitization of imatinib-induced cytotoxicity against human K562-r cells assessed as cell viability at 10 uM measured after 72 hrs by MTT assay relative to control; assay type: functional; details: read-out: Activity
[11] = system: Paclitaxel-resistant IGROV-1 cell; test: Inhibition of STAT5 phosphorylation in human Paclitaxel-resistant IGROV-1 cells expressing ABCB1 at 10 uM incubated for 72 hrs by Western blotting based immunoassay
[12] = system: A549; test: Inhibition of side population phenotype in human A549 cells expressing ABCC1 at 10 uM incubated for 90 mins by DCV staining based flow cytometric analysis; assay type: functional, cell-based
[13] = system: K562-r; test: Inhibition of STAT5 phosphorylation in human K562-r cells at 4 uM measured after 72 hrs by Western blotting based immunoassay; assay type: cell-based
[14] = system: COS-7; test: Cytotoxicity against African green monkey COS-7 cells assessed as reduction in metabolic activity at 10 uM incubated for 72 hrs by MTT assay; assay type: toxicity, cell-based; details: chlorocebus aethiops, cos-7, 72 h
[15] = system: PBMC; test: Effect on colony formation in human PBMC derived from healthy donors at 10 uM measured after 2 weeks in presence of imatinib by inverted microscopic analysis; assay type: functional, cell-based
[16] = Intrinsic clearance in rat hepatocytes measured per 10^6 cells; assay type: ADME, cell-based, Hepatocyte; details: read-out: CLH
[17] = Permeability of compound; assay type: ADME; details: not told; read-out: permeability
[18] = system: A549; test: Inhibition of STAT5 phosphorylation in human A549 cells at 10 uM incubated for 72 hrs by Western blotting based immunoassay; assay type: cell-based
[19] = system: K-562R; test: Enhancement of imatinib-induced anti-metabolic activity in human K562-r cells at 0.5 to 8 uM measured after 72 hrs by MTT assay relative to control; assay type: functional; details: dose 0.5-8 µM
[20] = Aqueous solubility of compound measured after 48 hrs by HPLC analysis; assay type: physicochemical; details: buffer
[21] = system: K-562R; test: Cytotoxicity against human K562-r cells assessed as reduction in metabolic activity at 10 uM incubated for 72 hrs by MTT assay; assay type: functional, cell-based
[22] = system: A2780/Taxol; test: Inhibition of side population phenotype in human Paclitaxel-resistant A2780 cells expressing ABCB1 at 10 uM incubated for 90 mins by DCV staining based flow cytometric analysis; assay type: functional, cell-based
[23] = system: A549; test: Effect on STAT5 protein expression in human A549 cells at 10 uM incubated for 72 hrs by Western blotting based immunoassay; assay type: functional, cell-based
[24] = system: MCF7; test: Effect on STAT5 protein expression in human MCF7 cells at 10 uM incubated for 72 hrs by Western blotting based immunoassay; assay type: functional, cell-based
[25] = system: Docetaxel-resistant DU145 cell; test: Inhibition of side population phenotype in human Docetaxel-resistant DU145 cell expressing ABCB1 at 10 uM incubated for 90 mins by DCV staining based flow cytometric analysis; assay type: functional
[26] = system: K-562R; test: Inhibition of side population phenotype in human K562-r cells at 10 uM incubated for 90 mins by DCV staining based flow cytometric analysis relative to control; assay type: functional
[27] = system: MCF7; test: Inhibition of STAT5 phosphorylation in human MCF7 cells at 10 uM incubated for 72 hrs by Western blotting based immunoassay; assay type: cell-based
[28] = system: Paclitaxel-resistant A2780; test: Inhibition of STAT5 phosphorylation in human Paclitaxel-resistant A2780 cells expressing ABCB1 at 10 uM incubated for 72 hrs by Western blotting based immunoassay; assay type: cell-based
[29] = system: Paclitaxel-resistant IGROV-1 cell; test: Inhibition of side population phenotype in human Paclitaxel-resistant IGROV-1 cells expressing ABCB1 at 10 uM incubated for 90 mins by DCV staining based flow cytometric analysis; assay type: functional
[30] = system: Docetaxel-resistant DU145 cell; test: Enhancement of docetaxel-induced anti-metabolic activity against human Docetaxel-resistant DU145 cell assessed as reduction in metabolic activity at 10 uM measured after 72 hrs by MTT assay; assay type: functional, cell-based
[31] = system: Paclitaxel-resistant IGROV-1 cell; test: Downregulation of STAT5 protein expression in human Paclitaxel-resistant IGROV-1 cells expressing ABCB1 at 10 uM incubated for 72 hrs by Western blotting based immunoassay; assay type: functional
[32] = system: A2780/Taxol; test: Sensitization of paclitaxel-induced cytotoxicity against human Paclitaxel-resistant A2780 cells assessed as reduction in metabolic activity at 10 uM measured after 72 hrs by MTT assay; assay type: functional, cell-based
[33] = system: Paclitaxel-resistant IGROV-1 cell; test: Enhancement of paclitaxel-induced anti-metabolic activity in human Paclitaxel-resistant IGROV-1 cells assessed as reduction in metabolic activity upto 300 nM measured after 72 hrs by MTT assay; assay type: functional, cell-based
[34] = system: A2780/Taxol; test: Effect on STAT5 protein expression in human Paclitaxel-resistant A2780 cells expressing ABCB1 at 10 uM incubated for 72 hrs by Western blotting based immunoassay; assay type: functional, cell-based
[35] = system: K562-r; test: Effect on STAT5 phosphorylation in human K562-r cells at 4 uM measured after 6 hrs by Western blotting based immunoassay; assay type: cell-based
[36] = system: Docetaxel-resistant PC-3 cell; test: Enhancement of docetaxel-induced anti-metabolic activity against human Docetaxel-resistant PC-3 cell assessed as reduction in metabolic activity at 10 uM measured after 72 hrs by MTT assay; assay type: functional, cell-based

SMILES: Cc1ccc(NC(=O)c2ccc(CN3CCN(C)CC3)cc2)cc1Nc1nccc(-c2cccnc2)n1 [IMATINIB]
- Activity [1]: Non-toxic
- Activity [2]: Active

SMILES: CC(=O)O[C@@]12CO[C@@H]1C[C@H](O)[C@@]1(C)C(=O)[C@H](O)C3=C(C)[C@@H](OC(=O)[C@H](O)[C@@H](NC(=O)OC(C)(C)C)c4ccccc4)C[C@@](O)([C@@H](OC(=O)c4ccccc4)[C@H]21)C3(C)C [DOCETAXEL ANHYDROUS]
- Activity [3]: >80%

SMILES: CCCc1nc2c(C)cc(-c3nc4ccccc4n3C)cc2n1Cc1ccc(-c2ccccc2C(=O)O)cc1
- inhibition [4]: inactive
- inhibition [5]: Active
- Activity [6]: inactive
- Activity [7]: Active; Marginal Enhancement Of Imatinib Activity Observed
- Activity [8]: inactive
- inhibition [9]: Active
- viability at 10 µM [10]: 34%
- inhibition [11]: Active
- inhibition [12]: Active
- inhibition [13]: Active; Lesser Effect Observed
- Activity [14]: Non-toxic
- Activity [15]: inactive
- hepatocyte CLint [16]: 23 µL/min/1e6 cells
- Papp [17]: 29 ×10⁻⁶ cm/s
- inhibition [18]: Active
- Activity [19]: <50%
- solubility at 48 h [20]: 19.2 µM (≈ 9.88 µg/mL)
- Activity [21]: inactive
- inhibition [22]: Active; Modest Effect Observed
- Activity [23]: inactive
- Activity [24]: inactive
- inhibition [25]: Active; Modest Effect Observed
- inhibition [26]: inactive
- inhibition [27]: Active
- inhibition [28]: Active
- inhibition [29]: Active; Modest Effect Observed
- Activity [30]: inactive
- Activity [31]: Active
- Activity [32]: Active
- Activity [33]: Active
- Activity [34]: inactive
- Activity [35]: inactive
- Activity [36]: Active; Marginal Activity Observed
